Assay results published in ChEMBL document CHEMBL1914304 (J Med Chem, 2011).

Tests used:
BJ = experiment: Cytotoxicity against human BJ cells after 72 hrs by luminescence assay; type: cell-based
[1] = Selectivity ratio of EC50 for human HepG2 cells to EC50 for Plasmodium falciparum
HepG2 = experiment: Cytotoxicity against human HepG2 cells after 72 hrs by luminescence assay; type: cell-based; details: hepg2, 72 h
HEK293 = experiment: Cytotoxicity against human HEK293 cells after 72 hrs by luminescence assay; type: cell-based; details: hek293, 72 h
Raji = experiment: Cytotoxicity against human Raji cells after 72 hrs by luminescence assay; type: cell-based

Row | Structure (SMILES) | Activity (BJ) | selectivity ratio [1] | Activity (HepG2) | Activity (HEK293) | Activity (Raji)
1 | Cl.O=C(/C=C/c1ccccc1)c1ccccc1O | Non-toxic | > 10 | Non-toxic | Non-toxic | Non-toxic
2 | Cl.O=C(/C=C/c1ccccc1)c1cc(F)ccc1O | Non-toxic | > 10 | Non-toxic | Non-toxic | Non-toxic
3 | Cl.O=C(/C=C/c1ccc(F)cc1)c1ccccc1O | Non-toxic | > 10 | Non-toxic | Non-toxic | Non-toxic
4 | Cl.O=C(/C=C/c1ccc(F)cc1)c1cc(F)ccc1O | Non-toxic | > 10 | Non-toxic | Non-toxic | Non-toxic
5 | Cl.O=C(CCc1ccccc1)c1ccccc1O | Non-toxic | > 10 | Non-toxic | Non-toxic | Non-toxic
6 | Cl.O=C(CCc1ccccc1)c1cc(F)ccc1O | Non-toxic | > 10 | Non-toxic | Non-toxic | Non-toxic
7 | Cl.O=C(CCc1ccc(F)cc1)c1ccccc1O | Non-toxic | > 10 | Non-toxic | Non-toxic | Non-toxic
8 | Cl.O=C(CCc1ccc(F)cc1)c1cc(F)ccc1O | Non-toxic | > 10 | Non-toxic | Non-toxic | Non-toxic
9 | Cc1ccccc1N1CCN(CC(O)COc2ccc(F)cc2C(=O)CCc2ccc(F)cc2)CC1.Cl (racemic) | Non-toxic | > 10 | Non-toxic | Non-toxic | Non-toxic
10 | Cc1cccc(N2CCN(CC(O)COc3ccc(F)cc3C(=O)CCc3ccc(F)cc3)CC2)c1.Cl (racemic) | Non-toxic | > 10 | Non-toxic | Non-toxic | Non-toxic
11 | Cc1ccc(N2CCN(CC(O)COc3ccc(F)cc3C(=O)CCc3ccc(F)cc3)CC2)cc1.Cl (racemic) | Non-toxic | > 10 | Non-toxic | Non-toxic | Non-toxic
12 | COc1ccccc1N1CCN(CC(O)COc2ccc(F)cc2C(=O)CCc2ccc(F)cc2)CC1.Cl (racemic) | Non-toxic | > 10 | Non-toxic | Non-toxic | Non-toxic
13 | COc1cccc(N2CCN(CC(O)COc3ccc(F)cc3C(=O)CCc3ccc(F)cc3)CC2)c1.Cl (racemic) | Non-toxic | > 10 | Non-toxic | Non-toxic | Non-toxic
14 | COc1ccc(N2CCN(CC(O)COc3ccc(F)cc3C(=O)CCc3ccc(F)cc3)CC2)cc1.Cl (racemic) | Non-toxic | > 10 | Non-toxic | Non-toxic | Non-toxic
15 | Cl.O=C(CCc1ccc(F)cc1)c1cc(F)ccc1OCC(O)CN1CCN(c2ccccc2Cl)CC1 (racemic) | Non-toxic | > 10 | Non-toxic | Non-toxic | Non-toxic
16 | Cl.O=C(CCc1ccc(F)cc1)c1cc(F)ccc1OCC(O)CN1CCN(c2ccc(Cl)cc2)CC1 (racemic) | Non-toxic | > 10 | Non-toxic | Non-toxic | Non-toxic
17 | Cl.O=C(CCc1ccc(F)cc1)c1cc(F)ccc1OCC(O)CN1CCN(c2ccc(Cl)c(Cl)c2)CC1 (racemic) | Non-toxic | > 10 | Non-toxic | Non-toxic | Non-toxic
18 | Cl.O=C(CCc1ccc(F)cc1)c1cc(F)ccc1OCC(O)CN1CCN(c2ccccc2F)CC1 (racemic) | Non-toxic | > 10 | Non-toxic | Non-toxic | Non-toxic
19 | Cl.O=C(CCc1ccc(F)cc1)c1cc(F)ccc1OCC(O)CN1CCN(c2ccc(F)cc2)CC1 (racemic) | Non-toxic | > 10 | Non-toxic | Non-toxic | Non-toxic
20 | Cl.O=C(CCc1ccc(F)cc1)c1cc(F)ccc1OCC(O)CN1CCN(c2ccc([N+](=O)[O-])cc2)CC1 (racemic) | Non-toxic | > 10 | Non-toxic | Non-toxic | Non-toxic

Row | Structure (SMILES) | Activity (BJ) | selectivity ratio [1] | Activity (HepG2) | Activity (HEK293) | Activity (Raji)
21 | Cl.Nc1ccc(N2CCN(CC(O)COc3ccc(F)cc3C(=O)CCc3ccc(F)cc3)CC2)cc1 (racemic) | Non-toxic | > 10 | Non-toxic | Non-toxic | Non-toxic
22 | Cl.O=C(CCc1ccc(F)cc1)c1cc(F)ccc1OCC(O)CN1CCN(c2ccc(O)cc2)CC1 (racemic) | Non-toxic | > 10 | Non-toxic | Non-toxic | Non-toxic
23 | Cl.O=C(CCc1ccc(F)cc1)c1cc(F)ccc1OCC(O)CN1CCN(c2ccc(C(F)(F)F)cc2)CC1 (racemic) | Non-toxic | > 10 | Non-toxic | Non-toxic | Non-toxic
24 | Cl.O=C(CCc1ccc(F)cc1)c1cc(F)ccc1OCC(O)CN1CCN(C(=O)c2ccccc2)CC1 (racemic) | Non-toxic | > 10 | Non-toxic | Non-toxic | Non-toxic
25 | Cl.O=C(CCc1ccc(F)cc1)c1cc(F)ccc1OCC(O)CN1CCN(C(c2ccccc2)c2ccccc2)CC1 (racemic) | Non-toxic | > 10 | Non-toxic | Non-toxic | Non-toxic
26 | CN1CCN(CC(O)COc2ccc(F)cc2C(=O)CCc2ccc(F)cc2)CC1.Cl (racemic) | Non-toxic | > 10 | Non-toxic | Non-toxic | Non-toxic
27 | CCN1CCN(CC(O)COc2ccc(F)cc2C(=O)CCc2ccc(F)cc2)CC1.Cl (racemic) | Non-toxic | > 10 | Non-toxic | Non-toxic | Non-toxic
28 | Cl.O=C(CCc1ccc(F)cc1)c1cc(F)ccc1OCC(O)CN1CCOCC1 (racemic) | Non-toxic | > 10 | Non-toxic | Non-toxic | Non-toxic
29 | Cl.O=C(CCc1ccccc1)c1ccccc1OCC(O)Cn1ccc2ccccc21 (racemic) | Non-toxic | > 10 | Non-toxic | Non-toxic | Non-toxic
30 | CC(C)c1nccn1CC(O)COc1ccccc1C(=O)CCc1ccccc1.Cl (racemic) | Non-toxic | > 10 | Non-toxic | Non-toxic | Non-toxic
31 | Cl.O=C(CCc1ccccc1)c1ccccc1OCC(O)CC1CCCC1 (racemic) | Non-toxic | > 10 | Non-toxic | Non-toxic | Non-toxic
32 | Cl.O=C(CCc1ccc(F)cc1)c1ccccc1OCC(O)Cn1ccc2ccccc21 (racemic) | Non-toxic | > 10 | Non-toxic | Non-toxic | Non-toxic
33 | CC(C)c1nccn1CC(O)COc1ccccc1C(=O)CCc1ccc(F)cc1.Cl (racemic) | Non-toxic | > 10 | Non-toxic | Non-toxic | Non-toxic
34 | Cl.O=C(CCc1ccc(F)cc1)c1ccccc1OCC(O)CC1CCCC1 (racemic) | Non-toxic | > 10 | Non-toxic | Non-toxic | Non-toxic
35 | Cl.O=C(CCc1ccccc1)c1cc(F)ccc1OCC(O)Cn1ccc2ccccc21 (racemic) | Non-toxic | > 10 | Non-toxic | Non-toxic | Non-toxic
36 | CC(C)c1nccn1CC(O)COc1ccc(F)cc1C(=O)CCc1ccccc1.Cl (racemic) | Non-toxic | > 10 | Non-toxic | Non-toxic | Non-toxic
37 | Cl.O=C(CCc1ccccc1)c1cc(F)ccc1OCC(O)CC1CCCC1 (racemic) | Non-toxic | > 10 | Non-toxic | Non-toxic | Non-toxic
38 | Cl.O=C(CCc1ccc(F)cc1)c1cc(F)ccc1OCC(O)Cn1ccc2ccccc21 (racemic) | Non-toxic | > 10 | Non-toxic | Non-toxic | Non-toxic
39 | CC(C)c1nccn1CC(O)COc1ccc(F)cc1C(=O)CCc1ccc(F)cc1.Cl (racemic) | Non-toxic | > 10 | Non-toxic | Non-toxic | Non-toxic
40 | Cl.O=C(CCc1ccc(F)cc1)c1cc(F)ccc1OCC(O)CC1CCCC1 (racemic) | Non-toxic | > 10 | Non-toxic | Non-toxic | Non-toxic
